{"source": "patent US11472723B2", "about": "“Method for removing heavy metals from an aqueous solution” (NEWSOUTH INNOVATIONS PTY LIMITED, priority 2016, dated 2022)", "key": {"Foaming test": {"experiment": "Foaming test", "format": "physicochemical", "settings": "about one tenth of CMC in water, shaken with air, Passed/Failed", "method": "A foaming test was performed by dissolving the test compound in water at a concentration of approximately one tenth of the CMC of the test compound. The solution was then placed in a stoppered vessel with air and shaken and a visual observation made as to whether a stable foam had been formed."}, "[1]": {"experiment": "Critical micelle concentration (CMC) in water", "format": "physicochemical", "source_text": "In the bulk aqueous phase, surfactants form aggregates, such as micelles, at concentrations above the critical micelle concentration (CMC), where the hydrophobic tails form the core of the aggregate and the hydrophilic heads are in contact with the surrounding liquid. The CMC of a surfactant in an aqueous solution can be determined by a person skilled in the art using techniques known in the art. For example, the CMC of a surfactant can be determined by measuring changes in the conductance or surface tension of the solution at different concentrations of the surfactant."}, "[2]": {"settings": "literature value (footnotes a-d); cited from earlier work"}, "Solubility in water": {"experiment": "Solubility in water", "settings": "for Solubility in water up to minimum 0.01M: Yes/No", "quoted_text": "The synthesized surfactants were compared to each other with respect to their water solubility, conductivity, critical micelle concentration and foaming ability to determine basic suitability for the ion flotation process."}, "[3]": {"experiment": "Ion flotation of arsenic solution in bubble column, As by ICP-MS", "settings": "for Arsenic removal after 90 minutes / arsenic removal: flotation; for Arsenic removal after 90 minutes: 5 ppm arsenic solution; for arsenic removal / Adsorption (%): time not stated", "method": "(§1) An ICP-MS (Perkin Elmer, NexION 300D with Universal cell technology) was used to determine the arsenic, mercury and lead solution concentrations.\nIn a typical experiment, 0.01 M of the single chain octanoyl-cysteine surfactant was dissolved (with stirring and heating to not more than 65° C.) in a solution of arsenic (HAsO4^2−) 5 ppm containing NaOH 0.1 M (to keep the pH at about 8), which was then made up to 100 ml using Milli-Q water.\nTwo samples were taken after 30, 60 and 90 minutes and the arsenic concentration of each sample was determined by ICP-MS. The upper outlet foam was also collected in a waste container using an outlet tube. […]"}, "[4]": {"experiment": "Ion flotation of lead ions with octanoyl-cysteine surfactant", "settings": "5 ppm Pb, 0.01M surfactant", "method": "as §1\n(§2) In similar ion flotation experiments, the removal rates for low levels of mercury and lead ions were also determined using the octanoyl-cysteine surfactant. The experiments were carried out using both air and pure N2 gas."}, "[5]": {"experiment": "Ion flotation of mercury ions with octanoyl-cysteine surfactant", "settings": "5 ppm Hg, 0.01M surfactant", "method": "as §1, §2"}, "[6]": {"settings": "for As(III) / As(V) / Total As removal / Total As(V) reduced to As(III) / Total conc.: feed 5320.6 μg/L, 0.01M surfactant", "method": "The As(V)/As(III) speciation measurements were carried out using a PE 200 Series HPLC, using a PRPX 100 Column, attached to a PE DRC-e (Dynamic Reaction Cell-e) ICPMS. 20 milli molar ammonium phosphate buffer was used as carrier solution at 1.5 ml/min with a matched Meinhart nebuliser and baffled spray chamber. The plasma conditions used were: 1500 W RF, at a gas flow rate of […].\nColumn solution samples after 30 minutes, and the solution remaining inside the column after 90 minutes, were sent for arsenic speciation determination analysis. It appears that after about half an hour the maximum adsorption of arsenic was obtained because no further foam was collected at the top of the column."}, "[7]": {"settings": "5 ppm As, 0.01M surfactant, inlet gas Air"}, "[8]": {"settings": "As in the waste collector (after 30 mins.)"}, "[9]": {"settings": "As remaining in the flotation cell (after 90 mins)"}}, "note": "Where “and” joins values, the source holds several entries; their conditions need not be identical. Equal entries are not always repeated. Where two headings read alike, the source gives them in different places. Marks after values point to notes of the source that are not given here."}
{"smiles": "CCCCCCCCCCCC(=O)N[C@@H](CS)C(=O)O", "values": [{"measurement": "Foaming test", "setting": "Foaming test", "value": "Passed"}, {"measurement": "CMC (in words)", "setting": "[1]", "value": "low CMC values"}, {"measurement": "CMC in water (M)", "setting": "[2]", "value": "0.02 × 10^−3*^d M"}, {"measurement": "solubility in water (in words)", "setting": "Solubility in water", "value": "low solubility in water"}, {"measurement": "Solubility in water up to minimum 0.01M", "setting": "Solubility in water", "value": "No"}, {"measurement": "solubility", "setting": "Solubility in water; water", "value": 300, "unit": "µM"}]}
{"smiles": "CCCCCCCCNC(=O)N[C@@H](CSSC[C@H](NC(=O)NCCCCCCCC)C(=O)O)C(=O)O", "note": "[D-octyl isocyanate cystine]", "values": [{"measurement": "Foaming test", "setting": "Foaming test", "value": "Failed"}, {"measurement": "Foaming test", "setting": "Foaming test; listed as double chain-octyl isocyanate cystine", "value": "produced no foaming in solution"}, {"measurement": "CMC (in words)", "setting": "[1]", "value": "acceptably high CMC values"}, {"measurement": "CMC in water (M)", "setting": "[2]", "value": "0.008*^c M"}]}
{"smiles": "CCCCCCCCSC[C@H](N)C(=O)O", "note": "[S-octyl cysteine, reference compound]", "values": [{"measurement": "Adsorption after 30 min (%)", "setting": "[3]; 100 ml of 5 ppm arsenic solution, surfactant 0.001 M (D-dodecanoyl cystine 0.01 × 10^−3 M)", "value": 0, "unit": "%"}, {"measurement": "Arsenic removal after 90 minutes", "setting": "[3]", "value": 0, "unit": "%"}, {"measurement": "arsenic removal", "setting": "[3]", "value": "no arsenic removal was observed"}, {"measurement": "Foaming test", "setting": "Foaming test", "value": "Failed"}, {"measurement": "Foaming test", "setting": "Foaming test; listed as single chain octyl based cysteine surfactant", "value": "failed the foaming test"}, {"measurement": "CMC (in words)", "setting": "[1]", "value": "high CMC"}, {"measurement": "CMC in water (M)", "setting": "[2]", "value": "0.006*^b M"}, {"measurement": "solubility in water (in words)", "setting": "Solubility in water", "value": "good solubility"}, {"measurement": "Solubility in water up to minimum 0.01M", "setting": "Solubility in water", "value": "Yes"}]}
{"smiles": "CCCCCCCC(=O)N[C@@H](CS)C(=O)O", "note": "[octanoyl-cysteine]", "values": [{"measurement": "Adsorption after 30 min (%)", "setting": "[3]; [7]", "value": 72.6, "unit": "%"}, {"measurement": "Adsorption after 60 min (%)", "setting": "[3]; [7]", "value": 99.88, "unit": "%"}, {"measurement": "Adsorption (%)", "setting": "[3]; 100 ml of 5 ppm arsenic solution, purified product, Air", "value": "99.9 (Air) %"}, {"measurement": "Adsorption (%)", "setting": "[3]; 100 ml of 5 ppm arsenic solution, purified product, N2 gas, listed as single chain octanoyl cysteine", "value": "98.6 (N2) % and 99.4 (N2) %"}, {"measurement": "Adsorption (%)", "setting": "[3]; 100 ml of 5 ppm arsenic solution, raw product, N2 gas, listed as single chain octanoyl cysteine", "value": "93.8 (N2) % and 88.2 (N2) %"}, {"measurement": "Arsenic removal after 90 minutes", "setting": "[3]", "value": 99.4, "unit": "%"}, {"measurement": "arsenic removal", "setting": "[3]", "value": 99.00, "unit": "%"}, {"measurement": "average removal of arsenic", "setting": "[3]; tests 1 and 2, raw unpurified product, 5 ppm feeding solution, after 90 minutes", "value": 91.00, "unit": "%"}, {"measurement": "average removal of arsenic", "setting": "[3]; tests 3 and 4, purified (2 times recrystallized) product, after 30 minutes", "value": 99.00, "unit": "%"}, {"measurement": "Adsorption after 30 min (%)", "setting": "[4]; inlet gas Air", "value": 92, "unit": "%"}, {"measurement": "Adsorption after 60 min (%)", "setting": "[4]; inlet gas Air", "value": 99.1, "unit": "%"}, {"measurement": "Adsorption after 30 min (%)", "setting": "[4]; inlet gas N2", "value": 94.9, "unit": "%"}, {"measurement": "Adsorption after 60 min (%)", "setting": "[4]; inlet gas N2", "value": 99.4, "unit": "%"}, {"measurement": "Adsorption after 30 min (%)", "setting": "[5]; inlet gas Air", "value": 99.6, "unit": "%"}, {"measurement": "Adsorption after 60 min (%)", "setting": "[5]; inlet gas Air", "value": 99.6, "unit": "%"}, {"measurement": "Adsorption after 30 min (%)", "setting": "[5]; inlet gas N2", "value": 99.59, "unit": "%"}, {"measurement": "Adsorption after 60 min (%)", "setting": "[5]; inlet gas N2", "value": 99.96, "unit": "%"}, {"measurement": "As(III)", "setting": "[6]; [8]", "value": 5259.4, "unit": "µg/L"}, {"measurement": "As(V)", "setting": "[6]; [8]", "value": 27.9, "unit": "µg/L"}, {"measurement": "Total As removal", "setting": "[6]; [8]", "value": 99.38, "unit": "%"}, {"measurement": "Total As(V) reduced to As(III)", "setting": "[6]; [8]", "value": 99.47, "unit": "%"}, {"measurement": "Total conc.", "setting": "[6]; [8]", "value": 5287.4, "unit": "µg/L"}, {"measurement": "Total As(V) reduced to As(III)", "setting": "[6]; As in the waste collector (after 30 mins.), listed as single chain octanoyl-cysteine", "value": "about 99.47%"}, {"measurement": "As(III)", "setting": "[6]; [9]", "value": 6.2, "unit": "µg/L"}, {"measurement": "As(V)", "setting": "[6]; [9]", "value": 27.1, "unit": "µg/L"}, {"measurement": "Total As removal", "setting": "[6]; [9]", "value": 99.38, "unit": "%"}, {"measurement": "Total As(V) reduced to As(III)", "setting": "[6]; [9]", "value": 99.49, "unit": "%"}, {"measurement": "Total conc.", "setting": "[6]; [9]", "value": 33.2, "unit": "µg/L"}, {"measurement": "Total As removal", "setting": "[6]; As remaining in the flotation cell (after 90 mins), listed as single chain octanoyl-cysteine", "value": 99.38, "unit": "%"}, {"measurement": "As (V) remaining in the column reduced to As (III)", "setting": "[6]; between the first 30 mins and 90 minutes, samples from inside the column", "value": 0.02, "unit": "%"}, {"measurement": "Foaming test", "setting": "Foaming test", "value": "Passed"}, {"measurement": "CMC in water (M)", "setting": "[2]", "value": "0.12*^a M"}, {"measurement": "Solubility in water up to minimum 0.01M", "setting": "Solubility in water", "value": "Yes"}]}
